In general, IC50 refers to the concentration that gives 50% inhibition.

We go through 18 compounds from patent US9771333B2, “Quinazoline derivatives as TAM family kinase inhibitors” (SIGNALCHEM LIFESCIENCES CORP., priority 2013, dated 2017).

What all share (type): biochemical
The target of test [1] is T1, human Mer (Homo sapiens, UniProt Q12866).
T1 construct: GST (N); made in house; host or cells: Sf9 insect cells (baculovirus)
T1 sequence (Q12866 578-872): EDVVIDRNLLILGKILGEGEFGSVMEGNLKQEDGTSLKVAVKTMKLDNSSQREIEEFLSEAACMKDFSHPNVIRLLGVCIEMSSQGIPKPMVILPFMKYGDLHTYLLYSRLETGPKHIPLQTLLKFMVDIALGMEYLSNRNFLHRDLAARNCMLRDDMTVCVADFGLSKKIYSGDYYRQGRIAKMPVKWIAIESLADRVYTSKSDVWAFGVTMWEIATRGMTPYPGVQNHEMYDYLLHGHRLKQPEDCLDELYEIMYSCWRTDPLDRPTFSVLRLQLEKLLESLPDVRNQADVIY
Description: Kinase enzymatic activity assay (33P-radiolabeled phosphate transfer), Mer. As to conditions: recombinant human Mer (578-872), poly(4:1 glu:tyr) substrate, 30 minutes. The method in brief: (§1)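 GST-tagged human Tyro3 (455-end), Axl (473-end) and Mer (578-872) from Sf9 cells, with poly(Glu:Tyr) 4:1 substrate, in MOPS pH 7.2 buffer with MgCl2. [33P]-ATP added from a 250 µM cocktail; reaction 30 min at room temperature, filter-captured counts, duplicates. IC50 derived from % inhibition over a compound serial dilution.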

The target in test [2] is T2, human Tyro3 (Homo sapiens, UniProt Q06418).
T2 construct: GST (N); made in house; host or cells: Sf9 insect cells (baculovirus)
T2 sequence (Q06418 455-890 limits assumed): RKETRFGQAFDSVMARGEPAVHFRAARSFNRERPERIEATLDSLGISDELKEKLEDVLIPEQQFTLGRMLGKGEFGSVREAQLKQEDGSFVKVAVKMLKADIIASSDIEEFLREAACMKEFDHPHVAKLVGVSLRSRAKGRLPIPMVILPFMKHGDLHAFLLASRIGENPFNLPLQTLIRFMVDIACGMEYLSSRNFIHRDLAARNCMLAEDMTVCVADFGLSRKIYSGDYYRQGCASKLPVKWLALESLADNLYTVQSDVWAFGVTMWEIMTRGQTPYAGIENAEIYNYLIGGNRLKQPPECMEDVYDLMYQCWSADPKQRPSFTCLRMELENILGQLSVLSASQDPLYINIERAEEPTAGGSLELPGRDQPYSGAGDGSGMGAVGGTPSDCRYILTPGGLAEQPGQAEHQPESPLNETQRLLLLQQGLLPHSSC
Description: Kinase enzymatic activity assay (33P-radiolabeled phosphate transfer), Tyro3. As to conditions: recombinant human Tyro3 (455-end), poly(4:1 glu:tyr) substrate, 30 minutes. The method in brief:
as §1

The target in test [3] is T3, human Axl (Homo sapiens, UniProt P30530).
T3 construct: GST (N); made in house; host or cells: Sf9 insect cells (baculovirus)
T3 sequence (P30530 473-894 limits assumed): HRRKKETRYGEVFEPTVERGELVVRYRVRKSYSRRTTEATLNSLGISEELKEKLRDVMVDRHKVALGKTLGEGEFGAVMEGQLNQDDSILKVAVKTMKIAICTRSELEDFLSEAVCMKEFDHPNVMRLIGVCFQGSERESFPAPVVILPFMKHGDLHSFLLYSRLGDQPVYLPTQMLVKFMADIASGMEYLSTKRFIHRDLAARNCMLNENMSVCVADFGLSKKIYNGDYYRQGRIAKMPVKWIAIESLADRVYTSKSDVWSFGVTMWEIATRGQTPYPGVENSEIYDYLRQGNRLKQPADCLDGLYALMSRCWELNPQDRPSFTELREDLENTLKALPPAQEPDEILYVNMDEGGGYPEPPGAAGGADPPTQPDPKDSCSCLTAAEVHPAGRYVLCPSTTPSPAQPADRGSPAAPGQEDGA
Description: Kinase enzymatic activity assay (33P-radiolabeled phosphate transfer), Axl. The conditions noted are these: recombinant human Axl (473-end), poly(4:1 glu:tyr) substrate, 30 minutes. The method in brief:
as §1

With `CN1CCC(COc2cc(OC3CCOCC3)c3c(Nc4nnc(C(F)(F)F)s4)ncnc3c2)CC1` [Example 2.37, N-(7-((1-methylpiperidin-4-yl)methoxy)-5-((tetrahydro-2H-pyran-4-yl)oxy)quinazolin-4-yl)-5-(trifluoromethyl)-1,3,4-thiadiazol-2-amine], the IC50 in test [1] was greater than 10000 nM; in test [2], greater than 10000 nM; in test [3], 1000 to 10000 nM.
For the compound `CN1CCC(COc2cc(OC3CCOCC3)c3c(Sc4nccs4)ncnc3c2)CC1` [Example 2.52, 2-((7-((1-methylpiperidin-4-yl)methoxy)-5-((tetrahydro-2H-pyran-4-yl)oxy)quinazolin-4-yl)thio)thiazole], the IC50 in test [1], in test [2] and in test [3] was less than 500 nM each time.
As for `CN(C)CCCOc1cc(OC2CCOCC2)c2c(Nc3nc(C(F)(F)F)cs3)ncnc2c1` [Example 2.54, N-(7-(3-(dimethylamino)propoxy)-5-((tetrahydro-2H-pyran-4-yl)oxy)quinazolin-4-yl)-4-(trifluoromethyl)thiazol-2-amine], the results for the IC50 in test [1], in test [2] and in test [3] were 1000 to 10000 nM, greater than 10000 nM and less than 500 nM, respectively.
Turning to `CN1CCC(CCOc2cc(OC3CCOCC3)c3c(Oc4ccc(F)cc4Cl)ncnc3c2)CC1` [Example 2, 4-(2-chloro-4-fluorophenoxy)-7-(2-(1-methylpiperidin-4-yl)ethoxy)-5-((tetrahydro-2H-pyran-4-yl)oxy)quinazoline], the half-maximal inhibitory concentration (IC50) in test [1] is less than 500 nM; in test [2] it was less than 500 nM; in test [3], 1000 to 10000 nM.
In the case of `CN1CCN(CCOc2cc(OC3CCOCC3)c3c(Nc4nccs4)ncnc3c2)CC1` [Example 2.14, N-(7-(2-(4-methylpiperazin-1-yl)ethoxy)-5-((tetrahydro-2H-pyran-4-yl)oxy)quinazolin-4-yl)thiazol-2-amine], the IC50 in test [1] is less than 500 nM; in test [2], 1000 to 10000 nM; in test [3] it was less than 500 nM.
Turning to `COc1ncnc2cc(OCCOCCN(C)C)cc(OC3CCOCC3)c12` [Example 2.16, 2-(2-((4-methoxy-5-((tetrahydro-2H-pyran-4-yl)oxy)quinazolin-7-yl)oxy)ethoxy)-N,N-dimethylethanamine], the half-inhibitory concentration (IC50) in test [1] was greater than 10000 nM; in test [2], 1000 to 10000 nM; in test [3], less than 500 nM.
As to `CN(C)CCN1CCN(c2cc(OC3CCOCC3)c3c(Nc4nc(C(F)(F)F)cs4)ncnc3c2)CC1` [Example 2.57, N-(7-(4-(2-(dimethyl-amino)ethyl)piperazin-1-yl)-5-((tetrahydro-2H-pyran-4-yl)oxy)-quinazolin-4-yl)-4-(trifluoromethyl)-thiazol-2-amine], the results for the 50% inhibitory concentration (IC50) in test [1], in test [2] and in test [3] were 1000 to 10000 nM, 1000 to 10000 nM and less than 500 nM, respectively.
Regarding `CN1CCC(COc2cc(OC3CCOCC3)c3c(Nc4nncs4)ncnc3c2)CC1` [Example 2.38, N-(7-((1-methylpiperidin-4-yl)methoxy)-5-((tetrahydro-2H-pyran-4-yl)oxy)quinazolin-4-yl)-1,3,4-thiadiazol-2-amine], the values for the IC50 in test [1], in test [2] and in test [3] were 500 to 1000 nM, 1000 to 10000 nM and less than 500 nM, respectively.
For the compound `Cc1cnc(Nc2ncnc3cc(OCC4CCN(C)CC4)cc(OC4CCOCC4)c23)s1` [Example 2.43, 5-methyl-N-(7-((1-methylpiperidin-4-yl)methoxy)-5-((tetrahydro-2H-pyran-4-yl)oxy)quinazolin-4-yl)thiazol-2-amine], the figures for the IC50 in test [1], in test [2] and in test [3] were less than 500 nM, 1000 to 10000 nM and less than 500 nM, respectively.
Turning to `COc1cc(OCC2CCN(C)CC2)cc2ncnc(Oc3ccc(F)cc3Cl)c12` [Example 2.34, 4-(2-chloro-4-fluorophenoxy)-5-methoxy-7-((1-methylpiperidin-4-yl)methoxy)quinazoline], the IC50 in test [1] was 500 to 1000 nM; in test [2], less than 500 nM; in test [3] it was 1000 to 10000 nM.
As to `CN1CCN(CCOc2cc(OC3CCOCC3)c3c(Oc4ccc(F)cc4Cl)ncnc3c2)CC1` [Example 3, 4-(2-chloro-4-fluorophenoxy)-7-(2-(4-methylpiperazin-1-yl)ethoxy)-5-((tetrahydro-2H-pyran-4-yl)oxy)quinazoline], the IC50 in test [1] was in the range of 1000 to 10000 nM; in test [2], 500 to 1000 nM; in test [3] it was 1000 to 10000 nM.
Take `CN1CCN(CCOc2cc(OC3CCOCC3)c3c(Sc4ccc(F)cc4Cl)ncnc3c2)CC1` [Example 3.3, 4-((2-chloro-4-fluorophenyl)thio)-7-(2-(4-methylpiperazin-1-yl)ethoxy)-5-((tetrahydro-2H-pyran-4-yl)oxy)quinazoline]: the half-inhibitory concentration (IC50) is 1000 to 10000 nM in test [1], less than 500 nM in test [2] and greater than 10000 nM in test [3].
As to `COCCOCCOc1cc(OC2CCOCC2)c2c(Oc3ccc(F)cc3Cl)ncnc2c1` [Example 2.4, 4-(2-chloro-4-fluorophenoxy)-7-(2-(2-methoxyethoxy)ethoxy)-5-((tetrahydro-2H-pyran-4-yl)oxy)quinazoline], the IC50 in test [1] was 1000 to 10000 nM; in test [2], 1000 to 10000 nM; in test [3] it was greater than 10000 nM.
Take `CC(C)Oc1ncnc2cc(OCC3CCN(C)CC3)cc(OC3CCOCC3)c12` [Example 6, 4-isopropoxy-7-((1-methylpiperidin-4-yl)methoxy)-5-((tetrahydro-2H-pyran-4-yl)oxy)quinazoline]: the IC50 in test [1], in test [2] and in test [3] was less than 500 nM throughout.
For the compound `Cc1nc(Sc2ncnc3cc(OCC4CCN(C)CC4)cc(OC4CCOCC4)c23)oc1C` [Example 2.49, 4,5-dimethyl-2-((7-((1-methylpiperidin-4-yl)methoxy)-5-((tetrahydro-2H-pyran-4-yl)oxy)quinazolin-4-yl)thio)oxazole], the half-inhibitory concentration (IC50) is greater than 10000 nM in test [1], 1000 to 10000 nM in test [2] and greater than 10000 nM in test [3].
`FC(F)(F)c1csc(Nc2ncnc3cc(OCCCN4CCOCC4)cc(OC4CCOCC4)c23)n1` [Example 2.18, N-(7-(3-morpholinopropoxy)-5-((tetrahydro-2H-pyran-4-yl)oxy)quinazolin-4-yl)-4-(trifluoromethyl)thiazol-2-amine]: the IC50 is 1000 to 10000 nM in test [1], greater than 10000 nM in test [2] and 500 to 1000 nM in test [3].
On the same counts, the results for `CCN(CC)CCNc1cc(OC2CCOCC2)c2c(Nc3nc(C(F)(F)F)cs3)ncnc2c1` [Example 7, N^7-(2-(diethylamino)ethyl)-5-((tetrahydro-2H-pyran-4-yl)oxy)-N^4-(4-(trifluoromethyl)thiazol-2-yl)quinazoline-4,7-diamine] are greater than 10000 nM, greater than 10000 nM and 1000 to 10000 nM.
Take `CN1CCC(COc2cc(OC3CCOCC3)c3c(Nc4nccs4)ncnc3c2)CC1` [Example 2.39, N-(7-((1-methylpiperidin-4-yl)methoxy)-5-((tetrahydro-2H-pyran-4-yl)oxy)quinazolin-4-yl)thiazol-2-amine]: the IC50 in test [1] is less than 500 nM; in test [2] it was 500 to 1000 nM; in test [3], less than 500 nM.
